Columns and labels:
[1] = system: Aggregatibacter actinomycetemcomitans; experiment: Growth inhibition (OD610), single culture; format: cell-based; conditions: A. actinomycetemcomitans
Experimental: (§1) Single species of Streptococcus gordonii (S. gordonii, S.g) strain V288 (ATCC #35105), Streptococcus sobrinus (S. sobrinus, S.$) strain SL1[CCM 6070, CNCTC 9/89] (ATCC #33478), or Aggregatibacter actinomycetemcomitans were analyzed. Also, a mixed culture containing Actinomyces viscosus (A. viscosus, A.v) strain (ATCC, #43146), Lactobacillus casei (L. casei, L.c) strain (ATCC #334), Streptococcus oralis (S. oralis, S. o) strain (ATCC #35037), Fusobacterium nucleatum (F. nucleatum, F. n) strain (ATCC #10953), and Veilonella parvula (V. parvula, V. p) strain (ATCC #17745) was also analyzed for growth inhibition/toxicity activity. Bacteria were cultured overnight in approximately 20 ml of BHI broth (BD, cat #237500) or maintained in a specialized complex modified BHI II medium in a continuous culture chemostat at 37° C. respectively. The following day, the OD610 were determined and solutions diluted to an OD610 of 0.2 or 0.1 respectively for the assay.
(§2) Triclosan (positive control) was prepared as a 10% stock in 100% EtOH and 3 fold serial dilutions were performed in 100% EtOH. An appropriate amount of the diluted samples was then transferred into a 96 well clear plate such that the resulting final concentration of the test samples ranged from either a 2 mM or 4 mM (highest concentration) to 0.0078 mM or 0.0156 mM (lowest concentration respectively) in 2% DMSO in 100 μl media per well. Triclosan (TCN) ranged from 0.01% to 1.67e-6% in 1% EtOH. For Zinc acetate, in order to mimic the 2:1 molar ratio (ligand:Zinc) in the Naringin:Zinc complex, the final concentration ranged from 0.7 mM to 0.0027 mM for samples with 2 mM as the highest concentration and 1.33 mM to […] for samples with 4 mM as the highest concentration in 2% DMSO. Next, 100 μl of bacterial culture at OD610 0.2 were introduced to the wells with the test samples. The wells were thoroughly mixed and incubated at 37° C. overnight. The plates were read using an Envision plate reader (PerkinElmer, Waltham, Mass.) at 610 nm.
(§3) The IC50 for the complex, Product 5, was determined for Streptococcus gordonii (S. gordonii), Streptococcus sobrinus (S. sobrinus), Aggregatibacter actinomycetemcomitans (A. actinomycetemcomitans), and also for the mixed bacterial culture. […] Triclosan (TCN) was included as a positive control for bacterial inhibition.
(§4) Further characterization was performed on planktonic oral microbes; Streptococcus sobrinus (Cariongenic—strain-SL1[CCM 6070, CNCTC 9/89] (ATCC cat. #33478), Streptococcus gordonii (Arginolytic—strain V288 (ATCC cat. #35105), Actinomyces viscosus) as well late colonizer (Gram −), pathogenic Aggregatibacter actinomycetemcomitans. All microbes were grown in their respective culture media: Streptococcus sobrinus and Streptococcus gordonii in BHI broth (BD, cat #237500), Aggregatibacter actinomycetemcomitans in BHI broth supplemented with 0.5% Yeast Extract (BD, cat #210941) and Actinomyces viscosus in Trypticase Soy Broth (BD, cat #211768) supplemented with 0.5% Yeast Extract (BD, cat #210941). Bacteria were cultured overnight in 37° C., 5% CO2 in approximately 20 ml of the appropriate culture broth. The following day, the OD610 was determined and solutions were diluted to 0.2 for the assay.
(§5) Triclosan (positive control) was prepared as a 10% stock in 100% EtOH and 3 fold serial dilutions were done in 100% EtOH. […] For Naringin+Zinc combination, while the highest total overall concentration was 2 mM, the exact concentration was Naringin (1.3 mM) and Zinc Acetate (0.7 mM) due to the compositions 2:1 molar ratio. For Zinc Acetate, in order to mimic the 2:1 ratio (ligand:Zinc) composition as in the complex, the final concentration ranged from 0.7 mM to 0.0027 mM in 2% DMSO.
(§6) A 100 μl aliquot of bacterial culture at OD610 0.2 were introduced to the wells with the test samples. The wells were thoroughly mixed and plates incubated overnight in a 37° C. incubator with or without 5% CO2 depending upon the bacterial species.

Streptococcus gordonii = experiment: Growth inhibition (OD610), single culture; format: cell-based
Experimental: as §1, §2, §3, §4, §5, §6

Streptococcus sobrinus = experiment: Growth inhibition (OD610), single culture; format: cell-based
Experimental: as §1, §2, §3, §4, §5, §6

Actinomyces viscosus = experiment: Growth inhibition (OD610), single culture; format: cell-based; conditions: A. viscosus
Experimental: as §4
(§7) Test samples (Naringin, Naringin:Zinc complex and Naringin+Zinc Acetate (combination)) were prepared as a 100 mM stock solution followed by 2 fold serial dilution in 100% DMSO. Triclosan (positive control) was prepared as a 10% stock in 100% EtOH and 3 fold serial dilutions were done in 100% EtOH. […]
(§8) After approximately 12-13 hours of treatment, the plate was read at 610 nm using an Envision plate reader (PerkinElmer, Waltham, Mass.). The % inhibition relative to control was determined as follows: […]

S. sobrinus/A. viscosus = experiment: Growth inhibition (OD610), co-culture; format: cell-based, S. sobrinus and A. viscosus
Experimental: as §4, §7, §8

[2] = system: A. actinomycetemcomitans/A. viscosus; experiment: Growth inhibition (OD610), co-culture; format: cell-based, A. actinomycetemcomitans and A. viscosus
Experimental: as §4, §7, §8

[3] = system: A. actinomycetemcomitans/S. sobrinus; experiment: Growth inhibition (OD610), co-culture; format: cell-based, A. actinomycetemcomitans and S. sobrinus
[4] = system: planktonic oral bacterial species (S. sobrinus, S. gordonii, A. actinomycetemcomitans, A. viscosus, mixed cultures); experiment: Growth inhibition, summary statements over the single, co- and mixed cultures tested; format: cell-based, oral bacteria; conditions: for inhibition of single species, co-cultures and mixed cultures (in words): concentrations of Tables 7-12
Experimental: as §1, §2, §3, §4, §5, §6

[5] = 0.5 mM (combination 0.5 mM total)

Structure (SMILES)	% Inhibition ([1]; 0.175 mM) [%]	% Inhibition (Streptococcus gordonii; S. gordonii, 0.175 mM) [%]	IC50 (Streptococcus gordonii; Streptococcus gordonii, overnight at 37° C., read-out: IC50) [µM]	% Inhibition (Streptococcus sobrinus; S. sobrinus, 0.175 mM) [%]	IC50 (Streptococcus sobrinus; Streptococcus sobrinus, overnight at 37° C., read-out: IC50) [µM]	% Inhibition (Actinomyces viscosus; 0.175 mM) [%]	% Inhibition (S. sobrinus/A. viscosus; 0.175 mM) [%]	% Inhibition ([2]; 0.175 mM) [%]	% Inhibition ([3]; 0.175 mM) [%]	IC50 range over cultures tested, corresponding ppm ([4]; S. sobrinus, S. gordonii, A. actinomycetemcomitans and mixed chemostat cultures)	IC50 ([4]; S. sobrinus, S. gordonii, A. actinomycetemcomitans and mixed chemostat cultures, read-out: concentration that inhibited 50% of the bacterial growth (IC50), range over cultures tested) [µM]	inhibition of single species, co-cultures and mixed cultures (in words) [4]	inhibition at 500 µM ([1]; Aggregatibacter actinomycetemcomitans, 0.5 mM (combination 0.325 mM + 0.175 mM, 0.5 mM total)) [%]	inhibition at 500 µM (Streptococcus gordonii; Streptococcus gordonii, S. gordonii, 0.5 mM (combination 0.325 mM + 0.175 mM, 0.5 mM total)) [%]	inhibition at 500 µM (Streptococcus sobrinus; Streptococcus sobrinus, S. sobrinus, 0.5 mM (combination 0.325 mM + 0.175 mM, 0.5 mM total)) [%]	inhibition at 500 µM (Actinomyces viscosus; Actinomyces viscosus, 0.5 mM (combination 0.325 mM + 0.175 mM, 0.5 mM total)) [%]	inhibition at 500 µM (S. sobrinus/A. viscosus; [5]) [%]	inhibition at 500 µM [2, 5] [%]	inhibition at 500 µM [3, 5] [%]	antimicrobial effect on bacterial species tested (in words) ([4]; all concentrations tested, cultured alone or as co-cultures)
CC(=O)[O-].CC(=O)[O-].[Zn+2] [Zinc Acetate alone, Zinc (II) Acetate]	29.24 ± 0.42	13.51 ± 10.18	300 ± 20	−1.05 ± 3.10	290 ± 40	−1.84 ± 5.86	2.46 ± 6.58	4.13 ± 6.89	6.58 ± 5.36	45.9-317.5 ppm	250 to 1730	little to no detectable inhibition								
C[C@@H]1O[C@@H](O[C@H]2[C@H](Oc3cc(O)c4c(c3)O[C@H](c3ccc(O)cc3)CC4=O)O[C@H](CO)[C@@H](O)[C@@H]2O)[C@H](O)[C@H](O)[C@H]1O [Naringin]												little to no detectable inhibition	5.01 ± 1.69	0.96 ± 2.82	-2.64 ± 2.54	-3.5 ± 4.1	-3.79 ± 7.15	-0.03 ± 2.02	0.33 ± 3.48	did not show detectable antimicrobial effect

Reference: patent US10548829B2, “Oral care compositions and methods of use” (priority 2016, dated 2020)
